Experimental findings from patent US11254640B2, “N-substituted indoles and other heterocycles for treating brain disorders” (The Regents of the University of California, priority 2019, dated 2022) are described below.

The subject of this assay is C57/BL6J mice. In words: Forced swim test (FST). The class given is in vivo, mouse. The settings on record: 24 h after drug administration; i.p., compounds 20 mg/kg, ketamine 3 mg/kg. On the procedure: Forced Swim Test. As increased cortical structural plasticity in the anterior parts of the brain mediates the sustained (>24 h) antidepressant-like effects of ketamine and play a role in the therapeutic effects of 5-HT2A agonists, the impact of IsoDMT analogs on forced swim test (FST) behavior (FIG. 14A and FIG. 14B) was evaluated. First, a pretest was used to induce a depressive phenotype. Compounds were administered 24 h after the pre-test, and the FST was performed 24 h and 7 d post drug administration.
Forced Swim Test (FST). Male C57/BL6J mice (9-10 weeks old at time of experiment) were obtained from the Jackson Lab and housed 4-5 mice/cage in a UCD vivarium following an IACUC approved protocol. After 1 week in the vivarium each mouse was handled for approximately 1 minute by a experimenter for 3 consecutive days leading up to the first FST. […] Immobility scores for all mice were determined after the pre-test and mice were randomly assigned to treatment groups to generate groups with similar average immobility scores to be used for the following two FST sessions. […] Experiments were video-recorded and manually scored offline. Immobility time—defined as passive floating or remaining motionless with no activity other than that needed to keep the mouse's head above water—was scored for the last 4 min of the 6 min trial.

SMILES strings stand for the structures.

On to `COc1ccc2c(ccn2C[C@@H](C)N(C)C)c1` [Example 59, (R)-1-(5-methoxy-1H-indol-1-yl)-N,N-dimethylpropan-2-amine], for which the “immobility in forced swim test” value is “significantly reduced immobility”.
